19 molecules from patent US20040043959A1, “Combination therapies for treating methylthioadenosine phosphorylase deficient cells” (priority 2002, published 2004) can be followed below.

In this assay the target is T1, Human MTAP (Homo sapiens, UniProt Q13126).
T1 construct: six-histidine tag (His6) (N); made in house; host or cells: E. coli BL21 DE3
T1 sequence (Q13126 1-283): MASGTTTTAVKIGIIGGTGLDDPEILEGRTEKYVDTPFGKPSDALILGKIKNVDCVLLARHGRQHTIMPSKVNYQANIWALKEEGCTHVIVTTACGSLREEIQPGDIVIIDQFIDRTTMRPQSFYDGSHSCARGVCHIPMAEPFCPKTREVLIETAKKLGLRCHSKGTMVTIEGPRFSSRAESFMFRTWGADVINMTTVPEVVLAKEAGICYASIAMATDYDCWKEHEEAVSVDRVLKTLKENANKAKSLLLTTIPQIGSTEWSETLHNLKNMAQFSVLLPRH
Nature of the assay: MTAP substrate assay, coupled spectrophotometric (adenine, xanthine oxidase). The conditions noted are these: 2 nM MTAP; for activity at 50 µM: 10 min, read-out: MT-A—50: initial velocity as a percentage of the initial velocity with MTA as substrate; for MT-A—10: initial velocity as a percentage of the initial velocity with MTA as substrate: compound 10 uM, relative to MTA at 10 uM. The class given is biochemical. Summed up: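 Detection was xanthine oxidase-coupled (0.8 units/ml), reading adenine-derived absorbance at 305 nm over 10 min in potassium phosphate/DTT buffer at 37° C, with N-His6 enzyme purified from E. coli.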

Setting [1] is: compound 50 uM, relative to MTA at 50 uM.

Each structure is given as a SMILES string.

In the case of `Cc1cc(=O)oc2cc(SC[C@H]3O[C@@H](n4cnc5c(N)ncnc54)[C@H](O)[C@@H]3O)ccc12` [2(G)(40), 7-({[(2S, 3S, 4R, 5R)-5-(6-amino-9H-purin-9-yl)-3,4-dihydroxytetrahydro-furan-2-yl]methyl}thio)-4-methyl-2H-chromen-2-one], the “MT-A—10: initial velocity as a percentage of the initial velocity with MTA as substrate” value is on record as 6%. Also, the activity at 50 µM under setting [1] is 10%.
The like results for `CNC(=O)CSC[C@H]1O[C@@H](n2cnc3c(N)ncnc32)[C@H](O)[C@@H]1O` [2(G)(56), 2-({[(2S, 3S, 4R, 5R)-5-(6-amino-9H-purin-9-yl)-dihydroxytetrahydrofuran-2-yl]methyl}thio)-N-methylacetamide] were, in that order, 6% and 10%.
As for `Nc1ncnc2c1ncn2[C@@H]1O[C@H](CSc2nc[nH]n2)[C@@H](O)[C@H]1O` [2(G)(53), (2R, 3R, 4S, 5S)-2-(6-amino-9H-purin-9-yl)-5-[(1H-1,2,4-triazol-3-ylthio)methyl]tetrahydro-furan-3,4-diol], the “MT-A—10: initial velocity as a percentage of the initial velocity with MTA as substrate” value is on record as 58%. Under setting [1], the activity at 50 µM was determined as 57%.
Take `Nc1ncnc2c1ncn2[C@@H]1O[C@H](CSCc2ccc(Cl)cc2Cl)[C@@H](O)[C@H]1O` [2(G)(76), (2R, 3R, 4S, 5S)-2-(6-amino-9H-purin-9-yl)-5-{[(2,4-dichlorobenzyl)-thio]methyl}tetrahydro-furan-3,4-diol]: the “MT-A—10: initial velocity as a percentage of the initial velocity with MTA as substrate” value is reported as 14%. Also, the activity at 50 µM under setting [1] is 11%.
On to `Nc1ncnc2c1ncn2[C@@H]1O[C@H](CSc2ccc3ccccc3c2)[C@@H](O)[C@H]1O` [2(G)(15)], for which the “MT-A—10: initial velocity as a percentage of the initial velocity with MTA as substrate” value turned out to be 29%. For the same molecule, the “MT-A—50: initial velocity as a percentage of the initial velocity with MTA as substrate” value under setting [1] came to 25%.
`Nc1ncnc2c1ncn2[C@@H]1O[C@H](CSc2nc(O)c3cn[nH]c3n2)[C@@H](O)[C@H]1O` [2(G)(49), (2R, 3R, 4S, 5S)-2-(6-amino-9H-purin-9-yl)-5-{[(4-hydroxy-1H-pyrazolo[3,4-d]pyrimidin-6-yl)thio]methyl}tetra-hydrofuran-3,4-diol]: the “MT-A—10: initial velocity as a percentage of the initial velocity with MTA as substrate” value is given as 52%. In addition, the activity at 50 µM under setting [1] was found to be 46%.
Take `Nc1ncnc2c1ncn2[C@@H]1O[C@H](CSc2ncc(C(F)(F)F)cc2Cl)[C@@H](O)[C@H]1O` [2(G)(41), (2R, 3R, 4S, 5S)-2-(6-amino-9H-purin-9-yl)-5-({[3-chloro-5-(trifluoromethyl)pyridin-yl]thio}methyl)tetra-hydrofuran-3,4-diol]: the “MT-A—10: initial velocity as a percentage of the initial velocity with MTA as substrate” value is 7%. Under setting [1], the activity at 50 µM came to 7%.
`Cc1cc(C)nc(SC[C@H]2O[C@@H](n3cnc4c(N)ncnc43)[C@H](O)[C@@H]2O)n1` [2(G)(154), (2R, 3R, 4S, 5S)-2-(6-amino-9H-purin-9-yl)-5-{[(4,6-dimethyl-pyrimidin-2-yl)thio]methyl}tetrahydrofuran-3,4-diol]: the “MT-A—10: initial velocity as a percentage of the initial velocity with MTA as substrate” value was determined as 39%. Besides, the activity at 50 µM under setting [1] stood at 26%.
`CC(SC[C@H]1O[C@@H](n2cnc3c(N)ncnc32)[C@H](O)[C@@H]1O)c1ccccc1` (stereo partly drawn) [2(G)(156), (2R, 3R, 4S, 5S)-2-(6-amino-9H-purin-9-yl)-5-{[(1-phenylethyl)thio]-methyl}tetrahydrofuran-3,4-diol]: the “MT-A—10: initial velocity as a percentage of the initial velocity with MTA as substrate” value was determined as 6%. The activity at 50 µM under setting [1] turned out to be 33%.
Take `COc1ccc2sc(SC[C@H]3O[C@@H](n4cnc5c(N)ncnc54)[C@H](O)[C@@H]3O)nc2c1` [2(G)(86), (2R, 3R, 4S, 5S)-2-(6-amino-9H-purin-9-yl)-5-{[(5-methoxy-1,3-benzothiozol-2-yl)thio]-methyl}tetrahydro-furan-3,4-diol]: the “MT-A—10: initial velocity as a percentage of the initial velocity with MTA as substrate” value is reported as 31%. Besides, under setting [1], the activity at 50 µM turned out to be 33%.
As to `COc1ccc(CSC[C@H]2O[C@@H](n3cnc4c(N)ncnc43)[C@H](O)[C@@H]2O)c(OC)c1` [2(G)(83), (2R, 3R, 4S, 5S)-2-(6-amino-9H-purin-9-yl)-5-{[(2,4-dimethoxybenzyl)-thio]methyl}tetrahydro-furan-3,4-diol], the “MT-A—10: initial velocity as a percentage of the initial velocity with MTA as substrate” value was 5%. For the same molecule, the activity at 50 µM under setting [1] came to 8%.
Regarding `CN(C)Cc1nnc(SC[C@H]2O[C@@H](n3cnc4c(N)ncnc43)[C@H](O)[C@@H]2O)n1C` [2(G)(66), (2R, 3R, 4S, 5S)-2-(6-amino-9H-purin-9-yl)-5-[({5-[(dimethylamino)-methyl]-4-methyl-4H-1,2,4-triazol-3-yl}thio)methyl]tetrahydro-furan-3,4-diol], the “MT-A—10: initial velocity as a percentage of the initial velocity with MTA as substrate” value worked out at 6%. The activity at 50 µM under setting [1] came out at 6%.
As for `CCCC(CCO)SC[C@H]1O[C@@H](n2cnc3c(N)ncnc32)[C@H](O)[C@@H]1O` (some centres unmarked) [2(G)(77)], the “MT-A—10: initial velocity as a percentage of the initial velocity with MTA as substrate” value is reported as 3%. In addition, the activity at 50 µM under setting [1] turned out to be 6%.
As to `CCCCCCCCSC[C@H]1O[C@@H](n2cnc3c(N)ncnc32)[C@H](O)[C@@H]1O` [2(G)(142), (2R, 3R, 4S, 5S)-2-(6-amino-9H-purin-9-yl)-5-[(octylthio)methyl]tetra-hydrofuran-3,4-diol], the “MT-A—10: initial velocity as a percentage of the initial velocity with MTA as substrate” value is listed as 1.5%. Besides, the activity at 50 µM under setting [1] was 58%.
Consider `Nc1ncnc2c1ncn2[C@@H]1O[C@H](CSc2ccc(Cl)cc2Cl)[C@@H](O)[C@H]1O` [2(G)(130), (2R, 3R, 4S, 5S)-2-(6-amino-9H-purin-9-yl)-5-{[(2,4-dichlorophenyl)-thio]methyl}tetrahydro-furan-3,4-diol], for which the “MT-A—10: initial velocity as a percentage of the initial velocity with MTA as substrate” value is on record as −2%. Also, the activity at 50 µM under setting [1] was 4.5%.
In the case of `Nc1ncnc2c1ncn2[C@@H]1O[C@H](CSCCc2cnccn2)[C@@H](O)[C@H]1O` [2(G)(61)], the “MT-A—10: initial velocity as a percentage of the initial velocity with MTA as substrate” value stood at 15%. In addition, the activity at 50 µM under setting [1] was 20%.
The like results for `COc1ccc(CSC[C@H]2O[C@@H](n3cnc4c(N)ncnc43)[C@H](O)[C@@H]2O)cc1` [2(G)(16), (2R, 3R, 4S, 5S)-2-(6-amino-9H-purin-9-yl)-5-{[(4-methoxybenzyl)-thio]methyl}tetrahydro-furan-3,4-diol] were, in that order, 59% and 60%.
In the case of `Nc1ncnc2c1ncn2[C@@H]1O[C@H](CSc2ccc(/C=C/C(=O)O)cc2)[C@@H](O)[C@H]1O` [2(G)(108), (2E)-3-[4-({[(2S, 3S, 4R, 5R)-5-(6-amino-9H-purin-9-yl)-3,4-dihydroxytetra-hydrofuran-2-yl]methyl}thio)phenyl]acrylic acid], the “MT-A—10: initial velocity as a percentage of the initial velocity with MTA as substrate” value was 8%. Under setting [1], the activity at 50 µM is 19%.
As for `Nc1ncnc2c1ncn2[C@@H]1O[C@H](CSCc2ccccc2Cl)[C@@H](O)[C@H]1O` [2(G)(73), (2R, 3R, 4S, 5S)-2-(6-amino-9H-purin-9-yl)-5-{[(2-chlorobenzyl)thio]-methyl}tetrahydrofuran-3,4-diol], the “MT-A—10: initial velocity as a percentage of the initial velocity with MTA as substrate” value is 30%. Moreover, under setting [1], the activity at 50 µM is 21%.
